Experimental findings from publication PMC9684079, “Pharmacological targeting of glutamatergic neurons within the brainstem for weight reduction” (Nature Metabolism, 2022) are described below.

What all share (test): biochemical
Holding throughout (details): read-out: % Inhibition

Assay [1] concerns the target Protein Tyrosine Kinase, ERBB2 (HER2) (Homo sapiens, UniProt P04626). On the set-up: Cerep/Eurofins selectivity panel, enzymes, per cent inhibition at 10 uM.
Assay [2] deals with T1, Peptidase, Matrix metalloprotease-7 (MMP-7) (Homo sapiens, UniProt P09237).
T1 construct: gene MMP7
Set-up: Cerep/Eurofins selectivity panel, enzymes, per cent inhibition at 10 uM.

The target of assay [3] is Protein Serine/Threonine Kinase, GSK3B (Homo sapiens, UniProt P49841). On the set-up: Cerep/Eurofins selectivity panel, enzymes, per cent inhibition at 10 uM.
A further assay deals with T2, Cyclooxygenase COX-2 (Homo sapiens, UniProt P35354).
T2 construct: gene PTGS2
On the set-up: Cerep/Eurofins selectivity panel, enzymes, per cent inhibition at 10 uM.

Another assay addresses T3, HMG-CoA Reductase (Homo sapiens, UniProt P04035).
T3 construct: gene HMGCR
Set-up: Cerep/Eurofins selectivity panel, enzymes, per cent inhibition at 10 uM.

A further assay concerns the target T4, Phosphodiesterase PDE5 (Homo sapiens, UniProt O76074).
T4 construct: gene PDE5A
Set-up: Cerep/Eurofins selectivity panel, enzymes, per cent inhibition at 10 uM.

Assay [4] deals with T5, Protein Tyrosine Kinase, EGF receptor (Homo sapiens, UniProt P00533).
T5 construct: gene EGFR
Set-up: Cerep/Eurofins selectivity panel, enzymes, per cent inhibition at 10 uM.

The target in assay [5] is Protein Serine/Threonine Kinase, MAPK14 (p38a) (Homo sapiens, UniProt Q16539). Set-up: Cerep/Eurofins selectivity panel, enzymes, per cent inhibition at 10 uM.
For assay [6], the target named is Protein Tyrosine Kinase, FES (Homo sapiens, UniProt P07332). Set-up: Cerep/Eurofins selectivity panel, enzymes, per cent inhibition at 10 uM.
Assay [7] addresses T6, Peptidase, Matrix metalloprotease-1 (MMP-1) (Homo sapiens, UniProt P03956).
T6 construct: gene MMP1
On the set-up: Cerep/Eurofins selectivity panel, enzymes, per cent inhibition at 10 uM.

Assay [8] concerns the target Protein Tyrosine Kinase, SRC (Homo sapiens, UniProt P12931). On the set-up: Cerep/Eurofins selectivity panel, enzymes, per cent inhibition at 10 uM.
The target of the next assay is T7, Peptidase, Renin (Homo sapiens, UniProt P00797).
T7 construct: gene REN
Set-up: Cerep/Eurofins selectivity panel, enzymes, per cent inhibition at 10 uM.

Assay [9] deals with T8, Peptidase, Matrix metalloprotease-13 (MMP-13) (Homo sapiens, UniProt P45452).
T8 construct: gene MMP13
Set-up: Cerep/Eurofins selectivity panel, enzymes, per cent inhibition at 10 uM.

A further assay deals with T9, Monoamine Oxidase MAO-B (Homo sapiens, UniProt P27338).
T9 construct: gene MAOB
Set-up: Cerep/Eurofins selectivity panel, enzymes, per cent inhibition at 10 uM.

The target of assay [10] is Protein Serine/Threonine Kinase, MAPK8 (JNK1) (Homo sapiens, UniProt P45983). On the set-up: Cerep/Eurofins selectivity panel, enzymes, per cent inhibition at 10 uM.
Assay [11] concerns the target T10, Protein Tyrosine Kinase, Insulin receptor (Homo sapiens, UniProt P06213).
T10 construct: gene INSR
Set-up: Cerep/Eurofins selectivity panel, enzymes, per cent inhibition at 10 uM.

Another assay concerns the target T11, Xanthine Oxidase (Bos taurus, UniProt P80457).
T11 construct: gene XDH
Set-up: Cerep/Eurofins selectivity panel, enzymes, per cent inhibition at 10 uM.

For the next assay, the target named is T12, Glucocorticoid (Homo sapiens, UniProt P04150).
T12 construct: gene NR3C1
On the set-up: Cerep/Eurofins selectivity panel, receptors, channels and transporters, per cent inhibition at 10 uM.

For assay [12], the target named is Protein Tyrosine Kinase, LYN B (Homo sapiens, UniProt P07948). Set-up: Cerep/Eurofins selectivity panel, enzymes, per cent inhibition at 10 uM.

T6 sequence (P03956 whole entry): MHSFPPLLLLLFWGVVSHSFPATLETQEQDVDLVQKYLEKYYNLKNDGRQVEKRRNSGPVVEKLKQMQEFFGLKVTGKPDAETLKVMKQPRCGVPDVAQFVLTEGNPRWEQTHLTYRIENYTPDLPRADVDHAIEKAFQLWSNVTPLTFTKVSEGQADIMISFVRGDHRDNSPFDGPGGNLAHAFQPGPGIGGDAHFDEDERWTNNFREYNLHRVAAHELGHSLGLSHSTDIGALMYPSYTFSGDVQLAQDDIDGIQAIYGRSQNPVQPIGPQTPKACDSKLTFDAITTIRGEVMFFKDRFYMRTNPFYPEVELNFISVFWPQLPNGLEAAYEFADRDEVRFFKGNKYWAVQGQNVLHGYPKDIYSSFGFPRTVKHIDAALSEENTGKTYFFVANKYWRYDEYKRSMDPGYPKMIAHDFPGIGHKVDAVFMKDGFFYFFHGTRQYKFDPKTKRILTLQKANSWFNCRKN
Chain of Protein Serine/Threonine Kinase, GSK3B (P49841 whole entry): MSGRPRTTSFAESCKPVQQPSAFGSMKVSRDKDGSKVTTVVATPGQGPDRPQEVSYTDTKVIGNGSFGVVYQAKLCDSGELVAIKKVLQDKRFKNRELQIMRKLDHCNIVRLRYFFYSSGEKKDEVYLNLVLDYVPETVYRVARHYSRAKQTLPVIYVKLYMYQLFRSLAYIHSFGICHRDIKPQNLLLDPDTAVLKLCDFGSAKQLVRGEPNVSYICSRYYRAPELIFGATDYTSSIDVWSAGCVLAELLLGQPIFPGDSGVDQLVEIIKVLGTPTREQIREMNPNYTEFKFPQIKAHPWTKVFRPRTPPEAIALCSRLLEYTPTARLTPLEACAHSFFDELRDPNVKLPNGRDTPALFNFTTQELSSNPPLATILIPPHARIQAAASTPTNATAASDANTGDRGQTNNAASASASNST
Chain of Protein Tyrosine Kinase, FES (P07332 whole entry): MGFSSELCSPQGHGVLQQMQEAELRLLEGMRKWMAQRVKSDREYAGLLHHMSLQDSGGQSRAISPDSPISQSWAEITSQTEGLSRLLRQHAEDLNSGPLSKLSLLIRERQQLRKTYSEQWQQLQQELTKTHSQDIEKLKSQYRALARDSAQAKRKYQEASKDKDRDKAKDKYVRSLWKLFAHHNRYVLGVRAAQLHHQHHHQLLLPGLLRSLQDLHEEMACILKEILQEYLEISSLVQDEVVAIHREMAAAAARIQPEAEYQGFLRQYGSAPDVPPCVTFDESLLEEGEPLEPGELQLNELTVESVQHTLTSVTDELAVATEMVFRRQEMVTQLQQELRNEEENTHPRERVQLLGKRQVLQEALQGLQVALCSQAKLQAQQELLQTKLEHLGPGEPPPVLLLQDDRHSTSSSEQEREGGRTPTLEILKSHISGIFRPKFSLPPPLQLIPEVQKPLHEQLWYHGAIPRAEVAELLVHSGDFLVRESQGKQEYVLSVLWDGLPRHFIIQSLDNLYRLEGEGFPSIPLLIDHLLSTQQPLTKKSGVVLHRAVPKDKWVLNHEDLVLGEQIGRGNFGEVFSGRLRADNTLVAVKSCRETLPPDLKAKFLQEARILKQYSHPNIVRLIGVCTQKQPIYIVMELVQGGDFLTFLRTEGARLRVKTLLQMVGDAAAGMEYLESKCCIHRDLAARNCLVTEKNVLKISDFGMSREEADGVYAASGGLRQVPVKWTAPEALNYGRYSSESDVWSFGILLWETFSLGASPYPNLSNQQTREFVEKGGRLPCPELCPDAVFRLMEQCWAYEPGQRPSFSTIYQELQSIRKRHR
T9 sequence (P27338 whole entry): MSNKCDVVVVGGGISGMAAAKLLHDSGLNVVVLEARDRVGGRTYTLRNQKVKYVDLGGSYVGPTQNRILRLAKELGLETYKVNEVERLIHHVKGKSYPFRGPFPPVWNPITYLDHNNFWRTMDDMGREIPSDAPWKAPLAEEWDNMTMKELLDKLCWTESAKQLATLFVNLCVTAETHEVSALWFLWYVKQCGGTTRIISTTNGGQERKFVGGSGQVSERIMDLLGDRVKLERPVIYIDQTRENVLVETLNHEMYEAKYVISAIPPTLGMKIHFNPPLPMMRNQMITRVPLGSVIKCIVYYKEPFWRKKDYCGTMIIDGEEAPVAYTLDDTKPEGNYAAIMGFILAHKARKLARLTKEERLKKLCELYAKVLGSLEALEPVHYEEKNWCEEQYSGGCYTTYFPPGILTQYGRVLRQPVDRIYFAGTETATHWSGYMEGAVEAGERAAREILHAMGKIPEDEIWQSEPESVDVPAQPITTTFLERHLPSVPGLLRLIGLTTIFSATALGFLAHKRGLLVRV
T2 sequence (P35354 whole entry): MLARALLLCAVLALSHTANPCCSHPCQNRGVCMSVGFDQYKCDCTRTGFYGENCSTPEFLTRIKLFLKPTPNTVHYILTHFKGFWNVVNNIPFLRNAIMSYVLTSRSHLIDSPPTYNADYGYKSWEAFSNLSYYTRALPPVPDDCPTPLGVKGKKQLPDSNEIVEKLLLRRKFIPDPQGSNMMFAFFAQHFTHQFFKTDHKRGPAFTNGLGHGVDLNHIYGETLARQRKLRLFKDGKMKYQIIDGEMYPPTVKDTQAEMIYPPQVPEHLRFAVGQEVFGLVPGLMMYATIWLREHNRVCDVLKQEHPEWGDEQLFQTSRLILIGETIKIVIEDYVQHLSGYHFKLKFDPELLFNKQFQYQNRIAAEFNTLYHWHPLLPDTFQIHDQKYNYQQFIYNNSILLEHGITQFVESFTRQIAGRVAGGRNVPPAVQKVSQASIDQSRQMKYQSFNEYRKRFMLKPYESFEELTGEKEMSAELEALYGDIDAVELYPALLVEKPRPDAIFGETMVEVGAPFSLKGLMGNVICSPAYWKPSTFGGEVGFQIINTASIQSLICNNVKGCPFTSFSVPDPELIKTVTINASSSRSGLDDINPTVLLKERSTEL
Chain of Protein Tyrosine Kinase, SRC (P12931 whole entry): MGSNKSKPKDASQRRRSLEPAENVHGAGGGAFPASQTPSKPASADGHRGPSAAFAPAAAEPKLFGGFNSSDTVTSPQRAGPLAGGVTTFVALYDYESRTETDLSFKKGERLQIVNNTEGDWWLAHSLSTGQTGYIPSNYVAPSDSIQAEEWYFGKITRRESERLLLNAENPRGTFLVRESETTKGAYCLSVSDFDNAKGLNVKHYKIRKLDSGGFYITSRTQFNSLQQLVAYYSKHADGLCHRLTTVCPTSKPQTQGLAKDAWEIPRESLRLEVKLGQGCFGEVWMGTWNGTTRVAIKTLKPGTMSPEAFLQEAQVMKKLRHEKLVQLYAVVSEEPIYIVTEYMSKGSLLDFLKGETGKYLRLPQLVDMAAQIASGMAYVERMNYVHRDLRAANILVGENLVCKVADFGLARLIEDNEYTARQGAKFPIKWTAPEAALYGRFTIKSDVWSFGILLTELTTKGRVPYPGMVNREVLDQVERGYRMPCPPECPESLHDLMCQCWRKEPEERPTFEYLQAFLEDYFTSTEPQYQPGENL
T5 sequence (P00533 whole entry): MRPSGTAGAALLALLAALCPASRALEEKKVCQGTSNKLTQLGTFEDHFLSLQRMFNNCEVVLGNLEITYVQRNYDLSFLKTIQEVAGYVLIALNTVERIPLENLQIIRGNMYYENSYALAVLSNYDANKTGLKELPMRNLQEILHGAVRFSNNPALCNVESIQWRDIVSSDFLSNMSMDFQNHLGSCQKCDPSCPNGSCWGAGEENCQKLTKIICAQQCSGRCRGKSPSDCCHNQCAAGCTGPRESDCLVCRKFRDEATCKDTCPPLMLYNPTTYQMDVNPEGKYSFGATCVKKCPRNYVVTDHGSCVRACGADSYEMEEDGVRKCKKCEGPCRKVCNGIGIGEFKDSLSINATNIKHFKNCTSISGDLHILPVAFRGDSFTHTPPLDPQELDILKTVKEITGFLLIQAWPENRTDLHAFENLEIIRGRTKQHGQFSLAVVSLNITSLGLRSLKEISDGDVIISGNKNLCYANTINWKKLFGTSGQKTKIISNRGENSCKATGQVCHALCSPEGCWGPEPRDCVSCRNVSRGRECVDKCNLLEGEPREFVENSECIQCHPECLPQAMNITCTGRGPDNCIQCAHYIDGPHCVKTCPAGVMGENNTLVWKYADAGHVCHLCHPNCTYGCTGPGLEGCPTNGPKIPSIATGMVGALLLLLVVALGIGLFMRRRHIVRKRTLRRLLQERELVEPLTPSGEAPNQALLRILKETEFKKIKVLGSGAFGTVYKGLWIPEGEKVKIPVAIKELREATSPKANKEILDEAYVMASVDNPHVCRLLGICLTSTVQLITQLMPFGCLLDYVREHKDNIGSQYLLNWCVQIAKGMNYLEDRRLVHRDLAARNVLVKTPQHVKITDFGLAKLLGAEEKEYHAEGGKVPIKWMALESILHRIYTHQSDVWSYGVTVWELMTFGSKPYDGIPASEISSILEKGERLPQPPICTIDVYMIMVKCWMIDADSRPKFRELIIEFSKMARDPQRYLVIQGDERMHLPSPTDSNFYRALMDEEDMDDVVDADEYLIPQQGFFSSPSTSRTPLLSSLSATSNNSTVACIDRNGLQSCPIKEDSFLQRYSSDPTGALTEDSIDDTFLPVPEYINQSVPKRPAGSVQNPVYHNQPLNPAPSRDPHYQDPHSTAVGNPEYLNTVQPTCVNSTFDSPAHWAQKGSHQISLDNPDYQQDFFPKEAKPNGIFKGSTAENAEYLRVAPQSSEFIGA
Chain of Protein Serine/Threonine Kinase, MAPK14 (p38a) (Q16539 whole entry): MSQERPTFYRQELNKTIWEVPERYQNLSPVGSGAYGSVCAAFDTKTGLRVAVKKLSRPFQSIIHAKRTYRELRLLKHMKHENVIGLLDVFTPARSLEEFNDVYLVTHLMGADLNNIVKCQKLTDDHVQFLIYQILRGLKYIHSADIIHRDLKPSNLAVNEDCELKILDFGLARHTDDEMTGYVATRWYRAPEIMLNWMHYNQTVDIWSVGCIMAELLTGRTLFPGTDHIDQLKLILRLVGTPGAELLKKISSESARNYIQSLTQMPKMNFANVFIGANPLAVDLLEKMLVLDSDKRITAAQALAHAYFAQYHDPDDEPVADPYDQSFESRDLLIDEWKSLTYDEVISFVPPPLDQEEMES

On to `C[C@]1(Nc2cnc(C(F)(F)F)cn2)CCC[C@@H]1NC(=O)c1ncccc1-n1nccn1` [CVN45502], for which the inhibition – broadly, the drop in the measured response relative to a control, in per cent – at 10 µM in assay [1] is 0%; in assay [2], 6%; in assay [3], 8%; at Cyclooxygenase COX-2, -13%; at HMG-CoA Reductase, -4%; at Phosphodiesterase PDE5 it was 29%. For the same compound, the inhibition at 10 µM in assay [4] was -22%; in [5] it was -1%; in [6] it was -13%; in [7], 18%; in assay [8], -7%; at Peptidase, Renin, 10%. The inhibition at 10 µM is -4% in assay [9]; 8% on Monoamine Oxidase MAO-B; 6% in [10]; -14% in assay [11]; 16% on Xanthine Oxidase; 13% at Glucocorticoid. Also, the inhibition at 10 µM in [12] was found to be 6%.
